The numbers were not newly measured in patent publication US20180206486A1, “Stable Agricultural Compositions” (Ceradis B.V., priority 2015, published 2018), which cites them from elsewhere.

For data set [1], the system named is downy mildew (Plasmopara viticola). The following applies: in vivo.
For data set [2], the system named is rodents. The following applies: after oral and dermal administration and inhalatory exposure.

Take Potassium phosphite: in data set [1], the “effectiveness as fungicide against downy mildew” value is recorded as “effective”. Also, in data set [2], the toxicity in rodents entry is on record as “low toxicity”.
